These results are taken from PMC8795149, “Characterization of a novel non-steroidal glucocorticoid receptor agonist optimized for topical treatment” (Scientific Reports, 2022).

Molecules are shown by their SMILES. “And” between values parts separate entries of the source, which are not always exact repeats. Identical values can stand only once.

One series concerns HPA axis. Further details: method as in PMID 3553247. As to conditions: topical; cited from earlier work.
A short description of series [1]: Stability in whole blood (human). Type of series: in vitro ADME. As to conditions: 0.1 µM, 37 °C. The procedure: Anonymized human blood samples were obtained from healthy volunteer donors upon informed written consent and in accordance with national legislation.
Compounds were incubated in diluted fresh rat, dog, minipig or human whole blood (heparin stabilized, 50% blood and 50% phosphate buffer with 1% bovine serum albumin) for 120 min at 0.1 µM, at 37 °C and the half-lives were determined. Samples were taken at 0, 15, 30, 60 and 120 min, and reactions were terminated by addition of acetonitrile containing analytical internal standard (IS). Test compound depletion was determined using time-of-flight mass spectrometry in positive ion mode (TOF–MS; AB Sciex API5600). Elimination rate constants (k) were calculated from peak areas and the half-lives was determined (t½ = ln2/k).

Series [2] is described as follows: Hepatocyte stability (dog). The series is classed as in vitro ADME. The conditions noted are these: predicted hepatic clearance, well stirred model. The procedure:
Compounds (1.0 µM) were incubated in duplicates with rat, dog, minipig or human hepatocytes (1.0 million cells/mL) in phosphate buffer, in 96-well plates for 120 min (37 °C). Reactions were stopped by addition of cold acetonitrile, at 0, 10, 30, 60, and 120 min, and dispensed into cold acetonitrile to stop the reactions. Plates were centrifuged for 30 min and samples were analysed using liquid chromatography coupled to a time-of-flight mass spectrometer. Compound depletion over time was used to estimate the elimination rate constant, from which the apparent intrinsic clearance (CLapp), and half-life (t½), were calculated.

Series [3] in a line: In vivo pharmacokinetics in dog, i.v. The procedure:
The pharmacokinetic profile of LEO 134310 was determined in rat (male Sprague Dawley) and dog (female Beagle) after intravenous (i.v.) injection at 1 mg/kg. LEO 134310 was administered in isotonic cyclodextrin solution at 0.5 mg/mL (0.1% Citrate buffer pH 4, 20% hydroxy-propyl-β-cyclodextrin in 0.2% NaCl). The i.v. dose was given as a bolus in rats and as a slow injection over 2 min in dogs. The dosing volume was 2 mL/kg. Blood was immediately diluted after sampling in an inhibitory cocktail containing acetylcholinesterase inhibitor Dichlorvos [1 mg/mL in an 8 mg/mL K2EDTA solution in phosphate buffer (PBS)] and samples were stored at − 80 °C until analysis. Samples were analyzed by LC–MS/MS using an API 5500/API 6500 QTRAP mass spectrometer. Pharmacokinetic parameters were derived from a non-compartment model in Phoenix64 (Pharsight, Certara).

The target of series [4] is T1, human Mineralocorticoid Receptor (Homo sapiens, UniProt P08235).
T1 construct: host or cells: HEK293 (DSMZ ACC 305)
T1 sequence (P08235 726-964 limits assumed): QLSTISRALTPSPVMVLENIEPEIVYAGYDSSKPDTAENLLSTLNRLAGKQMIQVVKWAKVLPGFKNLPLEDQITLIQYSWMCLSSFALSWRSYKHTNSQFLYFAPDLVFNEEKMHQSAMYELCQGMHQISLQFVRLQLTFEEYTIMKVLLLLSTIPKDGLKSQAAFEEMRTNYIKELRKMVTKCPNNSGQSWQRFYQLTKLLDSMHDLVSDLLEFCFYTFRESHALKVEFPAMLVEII
Kind of series: MR antagonist assay, MR reporter assay. Type of series: cell-based. As for the experimental part:
Assays were performed at Indigo Biosciences according to standard protocols. In brief, MR-luciferase reporter cells were incubated with medium containing charcoal-stripped fetal bovine serum and incubated with test and reference compounds for 24 h before measuring luminescence. Data were fitted by the means of four parameter logistic regression.
LEO 134310 and LEO 134988 were tested in the human Mineralocorticoid Receptor in cellular GAL4 reporter gene assays. All assays were done in HEK293 cells (DSMZ ACC 305). The plasmids used in Phenex’ GAL4 assay system are derivatives of Stratagene’s M2H plasmids: the reporter plasmid pFR-Luc (contains a synthetic promoter with five tandem repeats of the yeast GAL4 binding sites that control expression of the Photinus pyralis (American firefly) luciferase gene), and pCMV-BD (for fusions of nuclear receptor ligand binding domains to the DNA-binding domain of the yeast protein GAL4). In order to improve experimental accuracy, a second reporter - Renilla reniformis luciferase, driven by a constitutive promoter - was included as internal control. Using the control reporter (pRL-CMV) allows correcting for variations in experimental handling e.g. transfection efficacy, cell viability, pipetting errors, cell lysis efficiency and assay efficiency. The compounds were tested in 9 concentrations in triplicates.
On the technique in general: Reporter assays use an easily measured gene product as a stand-in for the process of interest.

The test system of series [5] is PPAR-alpha, LXR-beta, RAR-alpha, RXR-alpha, ER-alpha, PR, AR, ER-beta and TR. The experiment in a line: Selectivity screening on nuclear receptors, radioligand binding (CEREP). The conditions noted are these: 10µM; greater than 25% displacement considered significant. Further details: species or system human. The procedure: Selectivity screening on nuclear receptors – Studies were performed at CEREP using their proprietary assays for human PPARalpha, LXRbeta, RARalpha, RXRalpha, ERalpha, ERbeta, progesterone receptor, androgen receptor and thyroid hormone receptor employing specific, radiolabeled agonist ligands. Interactions leading to greater than 25% displacement of the radiolabeled agonist ligand were considered significant. Concentrations of LEO 134310 and LEO 134998 were 10µM.

Series [6] deals with 8 ion channels, 40 kinases, 2 phosphatases, up to 163 G-protein coupled receptors. Kind of series: Off-target panels (Eurofins IonChannelProfiler, KinaseProfiler, GPCRProfiler). The conditions noted are these: 10 µM.

On to `CCC(=O)O[C@]1(C(=O)CCl)[C@@H](C)C[C@H]2[C@@H]3CCC4=CC(=O)C=C[C@]4(C)[C@@]3(F)[C@@H](O)C[C@@]21C` [CP, Clobetasol Propionate], for which, in the series with HPA axis, the “Effect on morning plasma cortisol” value was “reduce morning plasma cortisol significantly”.

On to `C[C@H](NC(=O)[C@H]1CCCO1)[C@H](Oc1ccc(C(=O)O[C@H]2CCCN(C(=O)[C@H]3COC(=O)C3)C2)cc1)c1ccc(C2CC2)cc1` [LEO 134310], for which the “In vitro (blood) half-life” value in series [1] was 6 min and 4.4 ± 2.2 (n = 4) min. For the same compound, the “In vitro (hepatocytes) CLH” value in series [2] was > 30 (n = 1) mL/min/kg. Also, in series [3], the “In vivo clearance relative to liver blood flow” value came to 15 fold. Also, in series [3] (i.v. 1 mg/kg), the In vivo clearance is reported as 470 ± 97 (n = 3) mL/min/kg and the “In vivo terminal half-life” value is given as 11 ± 1.2 (n = 3) min. The “Antagonist activity on MR” value in series [4] is listed as “no antagonist activity on MR”. The “Interaction with nine nuclear hormone receptors in specific binding assays” value in series [5] is listed as “no significant interaction”. Moreover, the “Off-target activity in ion channel, kinase, phosphatase and GPCR panels” value in series [6] is on record as “no off-target activity was identified”.
